Marks after values point to notes of the source that are not given here.
Assays:
[1] = tested on: PDLSCs; experiment: WST-1 test, concentration-response study; assay type: cell-based, human; conditions: 48-h incubation, 50% viable cells
Description: (§1) To evaluate the concentration-dependent effects of the 3 antiseptic agents (H2O2, CHX, and ClO2), 9 different dilutions of each agent were prepared with growth medium (from 3.91 × 10^−6 to 10^−3 M, by 1:2 dilution in each step). As ClO2 is photosensitive and volatile, its dilution series were made in dark Eppendorf tubes which were opened only for the inevitably required time. After a 48-h-long incubation, cell viability was assessed by WST-1 test and impedimetric measurement, respectively (see below). The […] (IC50) values corresponding to the 50% viable cells or 0.5 normalized CI were determined from the concentration-effect curves in the case of the two methods, respectively.
(§2) This assay is dedicated to measuring the viability of PDLSCs. In 96-well culture plates, 10,000 PDLSCs were seeded. After 24 h, samples were treated with the irrigative compounds, and final concentrations were H2O2 0.3%, CHX 0.02%, and ClO2 0.0025% and 0.00025% solutions in 4-4 parallel wells. After 10 min, all the irrigative agents were removed and the samples were washed three times with normal growth medium, simulating the diluting effect of saliva in the oral cavity during the periodontal treatments. Forty-eight hours after the treatments, the cell viability was measured by the cell proliferation reagent containing water-soluble tetrazolium salt, WST-1 [2-(4-Iodophenyl)-3-(4-nitrophenyl)-5-(2,4-disulfophenyl)-2H-tetrazolium] (Roche). This assay determines mitochondrial dehydrogenase enzyme activity resulting water-soluble cleavage product. The WST-1 reagent was used at 1:20 dilution and incubation time was 2 h at 37 °C. Absorbance was measured at 450 nm with a reference wavelength of 655 nm by a microplate reader (BIO-RAD Model 3550). Background control values were determined in wells seeded with no cells. Each value represents the average of minimum 3 parallel measurements.

[2] = tested on: PDLSCs; experiment: Impedimetry (xCELLigence), concentration-response study; assay type: cell-based, human; conditions: 48-h incubation, 0.5 normalized CI
Description: as §1
The effect of irrigative agents on the viability of the PDLSC cells was assessed using the xCELLigence SP System (Roche Applied Science, Indianapolis, IN, USA), which monitors the cellular events by measuring electrical impedance across interdigitating gold microelectrodes integrated on the bottom of tissue culture plates (E-plates). The detected impedance is influenced by the viability and morphology of the attached cells on the surface of the electrodes. The presence of cells due to their insulating plasma membranes constrain the electrical current and lead to an increase in the electrode impedance. The impedance depends on the number of the attached cells and on the dimensional change of the attached cells on the electrodes. More cells attached to the electrode or spreading cause a larger increase in the impedance. The change in impedances represented as “cell index” (CI) which is a relative and dimensionless value. Briefly, the experimental protocol was as follows: to register the background value, 100 μL of culture medium was added to each well and impedance was recorded for 1 h to gain constant background curves of impedance. […] The viability of the PDLSC was monitored for 96 h. Normalized impedance to the control calculated by the integrated software (RTCA 1.2—Roche Applied Science, Indianapolis, IN, USA) was used for the statistical evaluation. […]

[3] = tested on: PDLSCs; experiment: Impedimetry (xCELLigence), 10 min treatment, time course and viability; assay type: cell-based, human; conditions: for long-term (2–120 h) effect on normalized CI / short-term (0–2 h) effect on normalized CI: 0.0025% and 0.00025% ClO2, 10 min treatment; for repopulation in long-term impedimetric analysis: 5-day-long period after treatment; for normalized Cell Index (CI) two days after the treatment: 37 °C; for viability of PDLSC cultures, impedimetry: 48 h; for cells killed during the first 30 min: ClO2 depending on the concentration applied (0.0025%, 0.00025%)
Description: The effect of irrigative agents on the viability of the PDLSC cells was assessed using the xCELLigence SP System (Roche Applied Science, Indianapolis, IN, USA), which monitors the cellular events by measuring electrical impedance across interdigitating gold microelectrodes integrated on the bottom of tissue culture plates (E-plates). The detected impedance is influenced by the viability and morphology of the attached cells on the surface of the electrodes. The presence of cells due to their insulating plasma membranes constrain the electrical current and lead to an increase in the electrode impedance. The impedance depends on the number of the attached cells and on the dimensional change of the attached cells on the electrodes. More cells attached to the electrode or spreading cause a larger increase in the impedance. The change in impedances represented as “cell index” (CI) which is a relative and dimensionless value. Briefly, the experimental protocol was as follows: to register the background value, 100 μL of culture medium was added to each well and impedance was recorded for 1 h to gain constant background curves of impedance. In the following step, PDLSCs were seeded in 10^5 cells/mL density. After 24-h incubation, they were treated with the solutions of the investigated irrigative compounds (H2O2, CHX, and ClO2) for 10 min and the medium served as reference. […] Normalized impedance to the control calculated by the integrated software (RTCA 1.2—Roche Applied Science, Indianapolis, IN, USA) was used for the statistical evaluation. Each data point represents the mathematical average of three parallels.

[4] = tested on: PDLSCs; experiment: WST-1 viability assay, 10 min treatment; assay type: cell-based, human; conditions: P3 and P7, 48 h
Description: as §2

[5] = tested on: PDLSC cultures; experiment: Morphological study, phase-contrast microscopy; assay type: cell-based, human; conditions: for cell morphology and cell number under phase-contrast microscope: 48 h after treatment, 0.3% H2O2, 0.02% CHX, 0.0025% or 0.00025% ClO2
Description: Cellular morphology was observed under an inverted phase-contrast microscope (Nikon TMS). Photomicrographs were taken applying a high-performance CCD camera (COHU) and the Scion image software.

[6] = tested on: STRO-1; experiment: Immunocytochemistry of stem cell marker STRO-1; assay type: cell-based, human; conditions: 48 h
Description: (§3) PDLSC cultures grown in 8 chamber slides (Nunc Lab-Tek) were treated with the antiseptic agents similar to the viability studies. After 48 h, treated and untreated cell cultures were fixed in 4% PFA in PBS for 20 min at room temperature (RT). To block non-specific binding, 5% goat serum in PBS was applied for 1 h at RT. Then cell cultures were incubated with the primary antibodies diluted 1:100 with 2.5% goat serum in PBS overnight at 4 °C. The applied primary antibodies were the following: anti-STRO-1 antibody (type mouse IgM)—a generous gift from Prof. Richard Oreffo (University of Southampton, UK); anti-CD90 (Thy-1; type mouse IgG) and the anti-CD105 (endoglin; type mouse IgM) antibodies purchased from Calbiochem and Santa Cruz Biotechnology, respectively. Goat anti-mouse IgM and IgG type secondary antibodies conjugated with Alexa Fluor 488 (Molecular Probes) were diluted with 2.5% goat serum in PBS in 1:2000 and 1:1000 respectively. The incubation time was 60 min at RT. Finally, the walls of the chambers were removed and the slides were mounted with ProLong Gold antifade reagent with DAPI (Molecular Probes). Immunocytochemically labeled cell cultures were investigated under a fluorescence microscope (Nikon Eclipse E600), the photos were taken by a Retiga 2000R digital CCD camera (QImaging), and analyzed by the Image Pro software (Media Cybernetics). Free macros for automated fluorescence analysis of image processing software FIJI/ImageJ were applied to evaluate immunostaining of stem cell markers. Each test point represents 3 × 3 reading of the samples.

[7] = tested on: CD90; experiment: Immunocytochemistry of stem cell marker CD90; assay type: cell-based, human; conditions: 48 h
Description: as §3

[8] = tested on: CD105; experiment: Immunocytochemistry of stem cell marker CD105; assay type: cell-based, human; conditions: 48 h
Description: as §3

[9] = tested on: human gingival fibroblasts; design: method as in PMID 1962413; conditions: cited from earlier work
[10] = tested on: bacteria; design: method as in PMID 24060558, PMID 23529300; conditions: direct antibacterial and biofilm-dissolving effects; cited from earlier work
[11] = tested on: Escherichia coli; design: method as in ref 1 (supplement); conditions: 1 µm diameter cylindrical bacterium; c0 = 300 mg/L (4.45 mM); formula (C), pig bladder parameters; ref 1 (supplement); cited from earlier work
[12] = design: method as in ref S1; conditions: ref S1, cited from earlier work
[13] = tested on: equine fibroblasts; conditions: cited from earlier work
[14] = long incubation time; cited from earlier work
[15] = tested on: gingival fibroblasts; design: method as in PMID 10632519; conditions: cited from earlier work
[16] = tested on: gingival fibroblasts; design: method as in PMID 1920010; conditions: exposure of dental root surfaces to CHX (0.12%); cited from earlier work
[17] = tested on: PDL cells; design: method as in PMID 1507037; conditions: 0.2 to 2.0% CHX pretreatment of the root surface; cited from earlier work
[18] = impedimetric results, 0.02% CHX
[19] = 0.3% H2O2, 0.02% CHX, higher ClO2 concentration (0.0025%)
[20] = P3, 0.02% CHX, 0.0025% (1/1) ClO2
[21] = P7, 0.02% CHX, 0.0025% (1/1) ClO2
[22] = P3 and P7, 0.3% H2O2, 0.02% CHX

Row | Compound | IC50 [1] | IC50 [2] | long-term (2–120 h) effect on normalized CI ([3]; 0.3% H2O2, 0.02% CHX) | short-term (0–2 h) effect on normalized CI ([3]; 0.3% H2O2, 0.02% CHX) | repopulation in long-term impedimetric analysis [3] | cells killed during the first 30 min [3, 18] | viability of PDLSC cultures, WST-1 [4, 19] | cell morphology and cell number under phase-contrast microscope [5] | STRO-1 Fluo. int. [%] Control = 100% [6, 20] | STRO-1 Fluo. int. [%] Control = 100% [6, 21] | CD90 Fluo. int. [%] Control = 100% [7, 20] | CD90 Fluo. int. [%] Control = 100% [7, 21] | CD105 Fluo. int. [%] Control = 100% [8, 20] | CD105 Fluo. int. [%] Control = 100% [8, 21] | viability of PDLSC cultures, impedimetry [3, 22] | other results
1 | [O][Cl+][O-] [ClO2, chlorine dioxide] | 638 µM | 795 µM | consistent increase of the curves | significantly less toxic compared to the other two antiseptic substances | proliferation of the remaining cell population can compensate cell loss | 20–30% | no effect | did not provoke morphological changes | 216.52*** % | 120.43* % | 83.07% | 97.74% | 213.90*** % | 55.46*** % | – | normalized Cell Index (CI) two days after the treatment ([3]; 10 minute treatment in 2.5 mg/l ClO2 solution): ≈ 0.8; normalized Cell Index (CI) two days after the treatment ([3]; 10 minute treatment in 25 mg/l ClO2 solution): about 0.5; viability of PDLSC cultures, impedimetry ([3]; P3, higher ClO2 concentration (0.0025%)): significant inhibitory effect; viability of PDLSC cultures, impedimetry ([3]; P3 and P7, lower ClO2 concentration (0.00025%)): unequivocally neutral; viability of PDLSC cultures, WST-1 ([4]; lower ClO2 concentration (0.00025%)): unequivocally neutral; STRO-1 Fluo. int. [%] Control = 100% ([6]; P3, 0.00025% (1/10) ClO2): 145.78** %; STRO-1 Fluo. int. [%] Control = 100% ([6]; P7, 0.00025% (1/10) ClO2): 114.69%; CD90 Fluo. int. [%] Control = 100% ([7]; P3, 0.00025% (1/10) ClO2): 159.23** %; CD90 Fluo. int. [%] Control = 100% ([7]; P7, 0.00025% (1/10) ClO2): 54.92*** %; CD105 Fluo. int. [%] Control = 100% ([8]; P3, 0.00025% (1/10) ClO2): 127.80* %; CD105 Fluo. int. [%] Control = 100% ([8]; P7, 0.00025% (1/10) ClO2): 15.74*** %; LD50 ([9]; human gingival fibroblasts): 0.16 mM; apoptotic responses ([9]; low concentrations of ClO2): did not induce apoptotic responses; times lower concentration of ClO2 needed to evoke the same or even stronger effect than that of CHX [10]: approximately 10 times; killing time (TKILL) [11]: 4.4 ms; diffusion coefficient D(pig bladder) ([12]; cellular pig bladder tissue): 1.8×10^–6 cm^2s^–1; diffusion coefficient D(gelatine) ([12]; unstructured gelatine gel medium): 2.4×10^–6 cm^2s^–1; toxicity compared with CHX ([13]; equine fibroblasts): less toxic to equine fibroblasts than CHX
2 | OO [H2O2, hydrogen peroxide] | 209 µM | 327 µM | retained their short-term cytotoxic effects | rapid decrease of normalized CI profile | – | – | complete lack of any viable cells | number of cells dramatically decreased | – | – | – | – | – | – | complete lack of any viable cells | time to kill all the cells ([3]; impedimetric results, 0.3% H2O2): ≤ 1 min; state of cultures at fixation for immunocytochemistry ([5]; 48 h after treatment with H2O2): all the cells were dead and detached from the slide; concentrations at which in vitro sporicide effects are evident [14]: 10–30%
3 | [H]/N=C(\N/C(=N/[H])NCCCCCCNC(=N)NC(=N)Nc1ccc(Cl)cc1)Nc1ccc(Cl)cc1 [CHX, chlorhexidine] | 16.6 µM | – | retained their short-term cytotoxic effects | rapid decrease of normalized CI profile | no sign of repopulation | about 70% | significantly deteriorating effects | number of cells dramatically decreased | 130.52* % | 86.02% | 199.23*** % | 30.98*** % | 218.18*** % | 104.81% | significantly deteriorating effects | IC50 ([1]; Homo sapiens, 48 h): 29.5 µM; IC50 ([2]; Homo sapiens, 48 h): 36.4 µM; cells killed in 5 min [3, 18]: 50%; low concentration shown to be toxic, reducing production of collagen and non-collagen proteins [15]: 0.0001%; subsequent attachment of gingival fibroblasts [16]: significantly inhibited; attachment of PDL cells onto the root surface and their morphology [17]: adversely altered; concentration with 50% of survival [13]: 0.005%

— article PMC8060220, “Comparative study of hyperpure chlorine dioxide with two other irrigants regarding the viability of periodontal ligament stem cells” (Clinical Oral Investigations, 2020)
